Measurements as given in patent publication US20060210479A1 (Dow Global Technologies Inc., priority 2004, published 2006).
Like-named read-outs stand apart in the source and are kept apart here.

What was measured:
[1] = test system: normal cheek pouch tissue; details: 2 mM solution topical, 10 minutes, readings Adjusted Volume CNT*mm2
[2] = test system: cancer cell lines (LNCaP, T84, Caco-2, RBL-2H3) and healthy control cells
LNCaP cell line = assay: Chelate permeability: fluorescence of cytoplasm and membrane fractions; format: cell-based, human
[3] = test system: cancer cells (LNCaP, Caco-2, T84); assay: Chelate permeability and specificity, cancer cells versus normal cells (summary); format: cell-based, human; details: cancer cells
[4] = test system: etoposide-induced (apoptotic) HEK293 cells; assay: Permeability of chelates to apoptotic cells, fluorescence of fractions; format: cell-based, human
Protocol: (§1) The human kidney transformed HEK293 cells (obtained from the ATCC) were grown in Eagle's Minimum Essential Medium (EMEM) supplemented with 10% (v/v) heat-inactivated fetal bovine serum, sodium pyruvate, nonessential amino acids and antibiotics in a humidified 5% CO2 atmosphere at 37° C. Medium and supplements were purchased from Gibco bRL (Grand Island, N.Y.). Etoposide was obtained from Sigma (St. Louis, Mo.) and prepared as 20 mM solution in dimethyl sulfoxide (DMSO). For treatments, etoposide was applied to the HEK293 cultures at 1:1000 dilution (final concentration of 20 μM) after cell became 75% confluent. As a control, cells were fed with medium containing 0.1% DMSO in the absence of etoposide. After treatment with etoposide, cells were incubated in a humidified 5% CO2 at 37° C. for 24 hours. HEK293 cells were collected by removing treatment medium and washed 2 times with 10 mM HEPES buffer. Final cell pellets were resuspended in a small amount of HEPES and stored at 4° C. for further study.
(§2) Cells were grown to confluence in T-150 flasks (about 2×10^6 cells). […] After treatment, the chelate or analogue supernatant was discarded and the cells were rinsed three times at room temperature with 10 mM HEPES. Cells were then removed from the flask by manual scraping. Cells were transferred to a 50-mL conical tube and centrifuged (400×g) for 5 minutes and the test material removed. Remaining cells were rinsed twice with cold 10 mM HEPES. Cells were used in cell binding assays.

[5] = test system: PZ-HPV-7 normal cell line; assay: Chelate permeability: fluorescence of cytoplasm and membrane fractions; format: cell-based; details: PZ-HPV-7
RBL-2H3 cell line = assay: as above; format: cell-based, rat; details: 0-2000 μM, 2 hours
Protocol: Tb-PCTMB (Tb(III) 3,6,9-tris(methylene phosphonic acid n-butyl ester)-3,6,9,15-tetraazabicyclo[9.3.1]pentadeca-1(15),11,13-triene) was tested for permeability to abnormal and disease-state cells.
RBL-2H3 is a rat basophilic leukemia cell line. These cells were grown in Iscove's Medium supplemented with 2 mM L-glutamnine, penicillin/streptomycin (100 IU/mL, 100 μg/mL) and 10% FBS. Cells were maintained at 5% CO2 and 95% humidity. PZ-HPV-7 cell line was derived from epithelial cells cultured from normal prostate tissue. They were grown in Keratinocyte-Serum Free Medium with human recombinant EGF and bovine pituitary extract supplemented with 50 μg/mL gentamicin and penicillin/streptomycin (100 IU/mL, 100 μg/mL). All media and supplements were purchased from Gibco BRL (Grand Island, N.Y., USA). All cell lines were obtained from ATCC and were maintained at 37° C., 5% CO2 and 95% humidity.
Cells were grown to confluence in T-150 flasks (about 2×10^6 cells). […] Cells were then removed from the flask by manual scraping. Cells were transferred to a 50-mL conical tube and centrifuged (400×g) for 5 minutes and the test material removed.
Cells were grown as described herein (Example 1). Cells were grown to confluence in T-150 flask (about 2×10^6 cells). […] Cells were then removed from the flask by manual scraping. Cells were transferred to a 50-mL conical tube and centrifuged (400×g) for 5 minutes and the test material removed.
Furthermore, one analogue, QCTMP (FIG. 26), having lesser lipophilic character (a free phosphonic acid moiety) was evaluated. […] In this study, the cytoplasm and membrane fractions were extracted by Mem-PER Eukaryotic Membrane Protein Extraction Reagent Kit as described by the manufacturers (Pierce Biotechnology, Rockford, Ill.) and analyzed by a Fluor-S Multilmager.

HSPC194 = HSPC194 (Homo sapiens, UniProt Q9P0S9); details: LNCaP, T84, Caco-2, RBL-2H3; 2 hours
HSPC194, sequence (Q9P0S9 whole entry): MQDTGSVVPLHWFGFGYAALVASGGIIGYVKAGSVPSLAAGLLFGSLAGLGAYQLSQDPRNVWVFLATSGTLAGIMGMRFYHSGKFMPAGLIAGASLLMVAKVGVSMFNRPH
Protocol: Cell samples were lysed in parallel by sonication or by lysis in hypotonic buffer. Cell fractions were collected from discontinuous sucrose gradients and from separate Percoll gradients, after ultracentrifugation.
Following fractionation, each sample was lyophilized to enrich the sample.
The resulting tryptic peptides were analyzed directly by mass spectrometry. Peptide mass fingerprints were generated for the identification of the protein, and MALDI-PSD was used to sequence Fragments T3, T4, T5, and T6. The resulting data were used to search GenBank for a human protein having or a nucleic acid encoding, an amino acid sequence matching this set of peptides.

[6] = test system: DMBA-induced tumor tissue of buccal cheek pouch; details: 2 mM solution topical, 10 minutes; for Fluorescence/mg Cytoplasm / Fluorescence/mg Membrane: readings Adjusted Volume CNT*mm2
[7] = test system: HEK293 cells, normal (non-induced); assay: Permeability of chelates to HEK293 cells, fluorescence of fractions; format: cell-based, human; details: HEK293 Normal; 1 mM chelate, 2 hours
Protocol: as §1, §2

T84 cell line = assay: Chelate permeability: fluorescence of cytoplasm and membrane fractions; format: cell-based, human; details: 1 mM chelate, 2 h, Table 1
Caco-2 cell line = assay: as above; format: cell-based, human
[8] = 0-2000 μM, 2 hours, compared to PZ-HPV-7

`CCCCOP(=O)([O-])CN1CCN(CP(=O)([O-])OCCCC)Cc2cccc(n2)CN(CP(=O)([O-])OCCCC)CC1.[Tb+3]` [Tb-PCTMB, Tb(III) 3,6,9-tris(methylenephosphonic acid n-butyl ester)-3,6,9,15-tetraazabicyclo[9.3.1]pentadeca-1(15),11,13-triene] was tested, and the “Fluorescence/mg Cytoplasm” value ([1]; Normal 1) was 1138, the “Fluorescence/mg Membrane” value ([1]; Normal 1) was 1126 and the “Fluorescence/mg Cytoplasm” value ([1]; Normal 2) was 1117. The “Fluorescence/mg Membrane” value ([1]; Normal 2) was 1125, the “localization in cancer cell lines, confocal fluorescence microscopy” value [2] was “localized throughout the cytoplasm” and the “presence in healthy (control) cells, confocal fluorescence microscopy” value [2] was “not present”. The “fluorescence in the cytoplasm, dose response” value (LNCaP cell line; [8]) was “significant increases in fluorescence”, the “Fluorescence/mg Cytoplasm” value (LNCaP cell line; 1 mM chelate, 2 h, Table 1) was 616.8 and the “Fluorescence/mg Membrane” value (LNCaP cell line; 1 mM chelate, 2 h, Table 1) was 448.9. For the same compound, the “permeability to cell membranes” value [3] was “permeable to cancer cell membranes”, the “permeability to apoptotic induced HEK293 cells” value [4] was “permeable” and the “Fluorescence/mg Membrane” value ([4]; HEK293 Apoptotic (etoposide 20 μM, 24 hours), 1 mM chelate, 2 hours) was 949. The “detectability in normal cells” value [5] was “significantly less detectable”, the “fluorescence in the membrane fractions, dose response” value (RBL-2H3 cell line) was “detectable quantity of fluorescence” and the “fluorescence in the cytoplasm, dose response” value (RBL-2H3 cell line; compared to PZ-HPV-7) was “significant increases in fluorescence”. For the same compound, the “binding to protein expressed in cancer cell lines (HSPC194, about 15 kDa)” value (HSPC194) was “binds specifically to a single protein”, the “fluorescence in the cytoplasm of tumor tissue compared to normal tissue” value [6] was “significantly greater fluorescence” and the “Fluorescence/mg Cytoplasm” value ([6]; Tumor 1) was 3014. The “Fluorescence/mg Membrane” value ([6]; Tumor 1) was 1331, the “Fluorescence/mg Cytoplasm” value ([6]; Tumor 2) was 3064 and the “Fluorescence/mg Membrane” value ([6]; Tumor 2) was 1484. For the same compound, the “Fluorescence/mg Membrane” value [7] was 925, the “Fluorescence/mg Cytoplasm” value (T84 cell line) was 476.4 and the “Fluorescence/mg Membrane” value (T84 cell line) was 355.5. The “fluorescence in the membrane fractions, dose response” value (Caco-2 cell line; 0-2000 μM, 2 hours) was “detectable quantity of fluorescence”, the “fluorescence in the cytoplasm, dose response” value (Caco-2 cell line; [8]) was “significant increases in fluorescence” and the “Fluorescence/mg Cytoplasm” value (Caco-2 cell line; 1 mM chelate, 2 h, Table 1) was 481.6. The “Fluorescence/mg Membrane” value (Caco-2 cell line; 1 mM chelate, 2 h, Table 1) was 398.6.
